From US20040116440A1, “Bombesin receptor antagonists” (priority 2000, published 2004)

Assays:
[1] = biological target: T1, cloned human GRP-preferring receptor (BB2) (Homo sapiens, UniProt P30550); assay: BB2 binding assay, [125I][Tyr4]bombesin competition on membranes of CHO-K1 cells; details: 90 minutes
T1 construct: expressed in transfected cells; membranes prepared from the cells
Source text: (§1) The compounds of the invention have been evaluated in receptor binding assays which measure their affinity in a cloned human NMB-preferring receptor (BB1) assay and in a cloned human GRP-preferring receptor (BB2) assay. […] Accordingly they may be useful for the diagnosis, prevention, or treatment of male sexual dysfunction in humans and animals, female sexual dysfunction in humans and animals, anxiety and panic disorders, social phobia, depression, psychoses, sleeping disorders, memory impairment, pulmonary hypertension, lung repair and lung development disorders, cancer including prostate cancer and pancreatic cancer, hepatic porphyria, gastrointestinal secretory disturbances, gastrointestinal disorders including colitis, Crohn's disease and inflammatory bowel disease, emesis, anorexia, pain, seasonal affective disorders, feeding disorders, or pruritus.
(§2) In the following experiments, measurement of BB1 and BB2 binding was as follows. CHO-K1 cells stably expressing cloned human NMB (for (BB1 assay) and GRP receptors (for BB2 assay) were routinely grown in Ham's F12 culture medium supplemented with 10% foetal calf serum and 2 mM glutamine. For binding experiments, cells were harvested by trypsinization, and stored frozen at −70° C. in Ham's F12 culture medium containing 5% DMSO until required. On the day of use, cells were thawed rapidly, diluted with an excess of culture medium, and centrifuged for 5 minutes at 2000 g. Cells were resuspended in 50 mM Tris-HCl assay buffer (pH 7.4 at 21° C., containing 0.02% BSA, […] bacitracin, […] chymostatin, […] leupeptin, and 2 mM phosphoramidon), counted, and polytronned (setting 5, 10 sec) before centrifuging for 10 minutes at 28,000 g. The final pellet was resuspended in assay buffer to a final cell concentration of 1.5×10^5/mL. For binding assays, 200 μL aliquots of membranes were incubated with [^125I][Tyr^4]bombesin (<0.1 nM) in the presence and absence of test compounds (final assay volume 250 μL) for 60 minutes and 90 minutes for NMB and GRP receptors, respectively. Nonspecific binding was defined by 1 μM bombesin. Assays were terminated by rapid filtration under vacuum onto Whatman GF/C filters presoaked in 0.2% PEI for >2 hours, and washed 50 mM Tris-HCl (pH 6.9 at 21° C.; 6×1 mL). Radioactivity bound was determined using a gamma counter.
All competition data was analysed using nonlinear regression utilising iterative curve-plolting procedures in Prism® (GraphPad Software Inc., San Diego, USA). IC50 values were corrected to Ki values using the Cheng-Prusoff equation (Cheng Y., Prusoff W. H., Biochem. Pharmacol. 22: 3099-3108, 1973).

[2] = biological target: T2, cloned human NMB-preferring receptor (BB1) (Homo sapiens, UniProt P28336); assay: BB1 binding assay, [125I][Tyr4]bombesin competition on membranes of CHO-K1 cells; details: 60 minutes
T2 construct: expressed in transfected cells; membranes prepared from the cells
T2 sequence (P28336 whole entry): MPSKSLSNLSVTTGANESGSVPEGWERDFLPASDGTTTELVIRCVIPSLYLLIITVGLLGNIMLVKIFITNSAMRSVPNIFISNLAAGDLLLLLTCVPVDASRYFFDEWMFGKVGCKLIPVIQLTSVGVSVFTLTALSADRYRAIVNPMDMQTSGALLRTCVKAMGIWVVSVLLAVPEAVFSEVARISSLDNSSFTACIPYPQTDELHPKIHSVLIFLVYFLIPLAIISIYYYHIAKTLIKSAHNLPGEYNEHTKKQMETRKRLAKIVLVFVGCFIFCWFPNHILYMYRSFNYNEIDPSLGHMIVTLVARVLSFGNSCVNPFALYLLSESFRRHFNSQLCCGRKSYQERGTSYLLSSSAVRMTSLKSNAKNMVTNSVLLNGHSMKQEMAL
Source text: as §1
as §2, with “For binding assays, 200 μL aliquots of membranes were incubated with [^125I][Tyr^4]bombesin (<0.1 nM) in the presence and absence of test compounds (final assay volume 250 μL) for 60 minutes and 90 minutes for NMB and GRP receptors, respectively. Nonspecific binding was defined by 1 μM bombesin. Assays were terminated by rapid filtration under vacuum onto Whatman GF/C filters presoaked in 0.2% PEI for >2 hours, and washed 50 mM Tris-HCl (pH 6.9 at 21° C.; 6×1 mL).” left out
All competition data was analysed using nonlinear regression utilising iterative curve-plolting procedures in Prism® (GraphPad Software Inc., San Diego, USA). […]

[3] = Table 2, N-acyl derivatives of Intermediate VIa
[4] = Table 6, N-terminal sulfonamide derivatives

T1 sequence (P30550 whole entry): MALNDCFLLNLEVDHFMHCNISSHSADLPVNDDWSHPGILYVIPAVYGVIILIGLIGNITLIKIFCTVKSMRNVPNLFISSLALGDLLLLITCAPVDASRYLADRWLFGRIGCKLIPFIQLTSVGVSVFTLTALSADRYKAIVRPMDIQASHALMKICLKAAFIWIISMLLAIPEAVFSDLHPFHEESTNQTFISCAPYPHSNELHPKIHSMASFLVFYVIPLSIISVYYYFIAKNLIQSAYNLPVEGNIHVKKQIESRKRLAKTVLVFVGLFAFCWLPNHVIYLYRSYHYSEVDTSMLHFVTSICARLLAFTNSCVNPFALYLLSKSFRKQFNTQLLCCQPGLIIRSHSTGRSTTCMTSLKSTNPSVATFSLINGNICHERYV

Row | Compound | IC50 [1, 3] | IC50 [1, 4] | IC50 [2, 4] | IC50 [2, 3]
1 | Cc1ccccc1CC(=O)N[C@@](C)(Cc1c[nH]c2ccccc12)C(=O)NCC1(c2ccccn2)CCCCC1 [Example 20, (S)-3-(1H-Indol-3-yl)-2-methyl-N-(1-pyridin-2-yl-cyclohexylmethyl)-2-(2-o-tolyl-ethanoylamino)-propionamide] | > 10000 nM | – | – | –
2 | Dimethylamino-N {(S)-2-(1H-indol-3-yl)-1-methyl-1-[(1-pyridin-2-yl-cyclohexyl-methyl)-carbamoyl]-ethyl}-benzamide [Example 11] | – | – | – | 2520 nM

The next lines start with the values.

Row | IC50 [1, 3] | IC50 [1, 4] | IC50 [2, 4] | IC50 [2, 3] | Compound
3 | – | > 10000 nM | – | – | C[C@@](Cc1c[nH]c2ccccc12)(NS(=O)(=O)c1cc(Cl)sc1Cl)C(=O)NCC1(c2ccccn2)CCCCC1 [Example 126, (S)-2-(2,5-Dichloro-thiophene-3-sulfonylamino)-3-(1H-indol-3-yl)-2-methyl-N-(1-pyridin-2-yl-cyclohexylmethyl)-propionamide]
4 | – | > 10000 nM | 627 nM | – | C[C@@](Cc1c[nH]c2ccccc12)(NS(=O)(=O)c1cc(C(F)(F)F)ccc1Cl)C(=O)NCC1(c2ccccn2)CCCCC1 [Example 135, (S)-2-(2-Chloro-5-trifluoromethyl-benzenesulfonylamino)-3-(1H-indol-3-yl)-2-methyl-N-(1-pyridin-2-yl-cyclohexylmethyl)-propionamide]
5 | – | > 10000 nM | 758 nM | – | C[C@@](Cc1c[nH]c2ccccc12)(NS(=O)(=O)c1ccc(C(F)(F)F)cc1[N+](=O)[O-])C(=O)NCC1(c2ccccn2)CCCCC1 [Example 136, (S)-3-(1H-Indol-3-yl)-2-methyl-2-(2-nitro-4-trifluoromethyl-benzenesulfonylamino)-N-(1-pyridin-2-yl-cyclohexylmethyl)-propionamide]
